Where “and” joins values, the source holds several entries; their conditions need not be identical. Equal values may be shown once.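 Following 48 hours of exposure in 96-well plates, responses at five concentrations were used to interpolate endpoints linearly. GI50 = concentration required for 50% inhibition of growth. TGI is the concentration that stops growth completely.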
Legend:
Assay in all cases: NCI-60 cell line screen, 48 h
[1] = tested on: SNB-75 CNS
[2] = tested on: CCRF-CEM leukemia
[3] = tested on: OVCAR-5 ovarian
[4] = tested on: KM12 colon
[5] = tested on: HCC-2998 colon
[6] = tested on: HOP-62 NSCLC
[7] = tested on: 786-0 renal
[8] = tested on: SK-MEL-2 melanoma
[9] = tested on: M14 melanoma
[10] = tested on: SK-MEL-28 melanoma

Row | Compound | GI50 [1] | TGI [1] | GI50 [2] | TGI [2] | GI50 [3] | TGI [3] | GI50 [4] | TGI [4] | GI50 [5] | TGI [5] | GI50 [6] | TGI [6] | GI50 [7] [µM] | TGI [7] [µM] | GI50 [8] | TGI [8] | GI50 [9] | TGI [9] | GI50 [10] | TGI [10]
1 | CCOc1cc2ncc(C#N)c(Nc3ccc(OCc4ccccn4)c(Cl)c3)c2cc1NC(=O)/C=C/CN(C)C | 0.915 µM and 0.362 µM | 5.87 µM and > 5.3 µM | 1.3 µM and 2.44 µM | 4.95 µM and > 6.11 µM | 0.416 µM and 0.351 µM | 7.82 µM and > 10 µM | 1.52 µM and 1.98 µM | 5.29 µM and > 7.34 µM | 1.29 µM and > 2.87 µM | 20.1 µM and > 7.88 µM | 1.22 µM and 1.51 µM | 4.44 µM and > 7.81 µM | 0.755 | 2.81 | 0.291 µM and 0.377 µM | 2.51 µM and > 4.63 µM | 0.392 µM and 0.38 µM | 1.95 µM and 1.58 µM | 1.41 µM and 2.36 µM | 2.96 µM and > 10 µM
2 | COc1ccc2c(c1)C(=O)c1c-2c(N(C)C)nc2ccccc12 | 57.6 µM | > 100 µM | > 100 µM | > 100 µM | > 100 µM | > 100 µM | > 100 µM | > 100 µM | > 100 µM | > 100 µM | > 100 µM | > 100 µM | > 100 | > 100 | > 100 µM | > 100 µM | > 100 µM | > 100 µM | > 100 µM | > 100 µM
3 | C/C=C(\C)C(=O)O[C@H]1C=CC(=O)O[C@@H]1CC[C@H](O)[C@H](C)O | 33.3 µM | 78.9 µM | 21.3 µM | 66.2 µM | > 100 µM | > 100 µM | 48.2 µM | > 100 µM | 64.6 µM | > 100 µM | > 100 µM | > 100 µM | 46.5 | > 100 | 37.6 µM | 98.1 µM | 34 µM | > 100 µM | 27.4 µM | 74.7 µM
4 | O=[N+]([O-])c1cccc([As]=[As]c2cccc([N+](=O)[O-])c2)c1 (centres undefined) | 0.0611 µM | 0.206 µM | 0.0273 µM | 0.112 µM | 0.0891 µM | 0.216 µM | 0.172 µM | 0.343 µM | 0.13 µM | 0.275 µM | 0.159 µM | 0.301 µM | 0.0961 | 0.222 | 0.13 µM | 0.272 µM | 0.136 µM | 0.287 µM | 0.136 µM | 0.305 µM
5 | COc1cccc(-n2ncc3c(N/N=C/c4ccncc4)ncnc32)c1 | 2.48 µM | > 25 µM | > 13.4 µM | > 25 µM | > 25 µM | > 25 µM | 2.9 µM | > 25 µM | > 25 µM | > 25 µM | > 25 µM | > 25 µM | 4.66 | > 25 | 4.33 µM | > 25 µM | 3.56 µM | > 25 µM | > 25 µM | > 25 µM
6 | Nc1nc(Nc2ccc(C3CCC(N4CCOCC4)CC3)cc2)nn1-c1ccccn1 (centres undefined) | 1.9 µM | 11.9 µM | 3.25 µM | 55.9 µM | 4.17 µM | > 100 µM | 0.18 µM | 38 µM | 17.2 µM | > 100 µM | 3.04 µM | > 68.4 µM | 2.22 | 11.4 | 7.77 µM | > 61.8 µM | 4.36 µM | > 36.8 µM | 4.34 µM | 16.4 µM
7 | NC(=S)N/N=C/c1ncccc1N | 0.674 µM | 25.3 µM and > 8.46 µM | 1.14 µM | > 58.4 µM | 5.98 µM | > 100 µM | 5.38 µM | > 100 µM | 1.14 µM | > 100 µM | 0.739 µM | 13.1 µM and 9.78 µM | 0.419 | > 33.6 | 75.7 µM | > 100 µM | – | 5.27 µM and 2.62 µM | 12.6 µM | > 100 µM
8 | Cc1ccc(C)c(NC(=O)CC/C(=N\NC(=O)c2c(O)ccc3ccccc23)C(C)C(=O)c2ccc(O)cc2)c1 (centres undefined) | – | > 100 µM | – | 71 µM | – | > 100 µM | – | > 100 µM | – | > 100 µM | – | > 100 µM | – | > 100 | – | > 100 µM | – | 41.4 µM | – | > 100 µM
9 | CC#CC(=O)SCCNC(=O)CC | – | > 10 µM | – | > 8.72 µM | – | > 10 µM | – | > 10 µM | – | > 10 µM | – | > 10 µM | – | > 10 | – | > 10 µM | – | > 10 µM | – | > 10 µM
10 | O=CC1CCCc2ccccc21 (centres undefined) | – | > 100 µM | – | > 72 µM | – | > 100 µM | – | > 100 µM | – | > 100 µM | – | > 100 µM | – | > 100 | – | > 100 µM | – | > 100 µM | – | > 100 µM
11 | Cc1cc(Cl)ccc1NC(=O)CC/C(CC(=O)C(C)C)=N\NC(=O)C[n+]1ccccc1 | – | > 100 µM | – | > 100 µM | – | > 100 µM | – | > 100 µM | – | > 100 µM | – | > 100 µM | – | > 100 | – | > 100 µM | – | > 100 µM | – | > 100 µM
12 | COc1ccc(OC)c(-c2c(C#N)c(N)nc(N3CCOCC3)c2C#N)c1 | 12.9 µM | 57.4 µM | > 100 µM | > 100 µM | > 100 µM | > 100 µM | > 100 µM | > 100 µM | 72.7 µM | > 100 µM | 65.3 µM | > 100 µM | > 100 | > 100 | > 100 µM | > 100 µM | > 100 µM | > 100 µM | 82.8 µM | > 100 µM
13 | COC(=O)CCC(NC(=S)N/N=C/c1ccco1)C(=O)OC (centres undefined) | – | > 100 µM | – | > 100 µM | – | > 100 µM | – | > 100 µM | – | > 100 µM | – | > 100 µM | – | > 100 | – | > 100 µM | – | > 100 µM | – | > 100 µM
14 | COc1ccc(C(=O)C(c2ccc(OC)cc2)C2(O)C(=O)Nc3c2ccc(Cl)c3C)cc1 (centres undefined) | – | > 100 µM | – | > 100 µM | – | > 100 µM | – | > 100 µM | – | > 100 µM | – | > 100 µM | – | > 100 | – | > 100 µM | – | > 100 µM | – | > 100 µM
15 | CC(=O)C1C(=O)C(=O)N(c2ccccc2C(C)C)C1=O (centres undefined) | – | > 100 µM | – | > 100 µM | – | > 100 µM | – | > 100 µM | – | > 100 µM | – | > 100 µM | – | > 100 | – | > 100 µM | – | > 100 µM | – | > 100 µM

— PubChem BioAssay (NCI)
